The text below walks through data of article PMC4402678, “Twins in spirit - episode I: comparative preclinical evaluation of [^68Ga]DOTATATE and [^68Ga]HA-DOTATATE” (EJNMMI Research, 2015).

Like-named read-outs stand apart in the source and are kept apart here.

The target of one data set is T1, hsst1 (Homo sapiens, UniProt P30872).
T1 construct: purchased Millipore (Schwalbach, Germany), ChemiSCREEN membranes; host or cells: CHO cells stably transfected
The data set is described as follows: Competition binding, hsst1 membrane preparations (Millipore), [125I]SST-28 radioligand. Conditions: CHO cell membranes (Millipore), [Leu8,D-Trp22,[125I]Tyr25]-somatostatin 28 radioligand; IC50 ± SD; read-out: IC50 hsst 1. As to the method:
(§1) Cell membrane preparations of cells expressing the human sst1–5 were obtained from Millipore (Schwalbach, Germany) and PerkinElmer (Rodgau, Germany). Competition binding studies were performed in close analogy to the manufacturer’s protocol. […] To each well, 10 μL of (Leu^8,D-Trp^22,[^125I]Tyr^25)-somatostatin-28 in binding buffer (approx. 100,000 cpm) were added. Then, 5 μg of cell membrane in 80 μL of binding buffer were added per well and incubated for 60 min at RT. The final radioligand concentration in the incubation mixture was 0.42 nM. Membranes were then aspired onto a glass fiber filtermat (Printed Filtermat B, Wallach, Turku, Finland), which had been preconditioned with 0.33% polyethylenimine for 30 min and then washed five times with 300 μL (per well) of wash buffer (50 mM HEPES, 500 mM NaCl, 0.1% BSA, buffered to pH 7.4 using 1 N NaOH), using a Mach II M Harvester 96 (Tomtec CE, Etten-Leur, The Netherlands). Membranes were washed ten times with 150 μL (per well) of wash buffer. The filtermat was then cut into squares containing the membrane from the respective wells, and membrane bound activity was counted in a γ-counter. IC50 values were calculated from bound activity [cpm] using PRISM 6 software (Graph Pad Software, San Diego, CA, USA).
(§2) Data were determined using membrane preparations of CHO cells stably transfected with the respective sst subtype.

The next data set concerns the target T2, hsst3 (Homo sapiens, UniProt P32745).
T2 construct: purchased Millipore (Schwalbach, Germany), ChemiSCREEN membranes; host or cells: CHO cells stably transfected
The data set is described as follows: Competition binding, hsst3 membrane preparations (Millipore), [125I]SST-28 radioligand. Conditions: CHO cell membranes (Millipore), [Leu8,D-Trp22,[125I]Tyr25]-somatostatin 28 radioligand; IC50 ± SD; read-out: IC50 hsst 3. The procedure: as §1, §2

For data set [1] the following is noted: pH 7.4, log P O/PBS.
Experimental: Lipophilicities of [^68Ga]DOTATATE/HA-DOTATATE and [^177Lu]DOTATATE/HA-DOTATATE were determined via a modified shake flask method as described previously [13].
The subject of a further data set is sst2. Also on record: method as in PMID 10774879. Conditions: read-out: IC50 (sst2), receptor autoradiography; cited from earlier work.
Data set [2] has as its target T3, hsst5 (Homo sapiens, UniProt P35346). Also on record: method as in PMID 10774879. Conditions: read-out: hsst5 affinity, autoradiography assay; cited from earlier work.
Data set [3] has as its target T3, hsst5. Put plainly: Competition binding, hsst5 membrane preparations (Millipore), [125I]SST-28 radioligand. Also on record: purchased Millipore (Schwalbach, Germany), ChemiSCREEN membranes; host or cells: CHO cells stably transfected. Conditions: CHO cell membranes (Millipore), [Leu8,D-Trp22,[125I]Tyr25]-somatostatin 28 radioligand; IC50 ± SD; read-out: IC50 hsst 5. The procedure: as §1, §2

A short description of data set [4]: Biodistribution in AR42J tumor-bearing nude mice. Conditions: mouse, 60 min p.i.
Experimental: (§3) To establish tumor growth, AR42J cells were detached from the surface of the culture flasks using 1 mM EDTA in PBS, centrifuged, and resuspended in serum-free culture medium. Concentration of the cell suspension was 2.5 to 5 × 10^6 cells/100 μL. Nude mice (CD-1 nu/nu, female, 6 to 8 weeks, from Charles River WIGA GmbH, Sulzfeld, Germany) were injected with 100 μL of the cell suspension subcutaneously into the flank. […] For competition studies, 20 μg TOC (0.8 mg/kg) were coinjected with the radioligands. The animals (groups of 4 to 5) were sacrificed 1 h post injection and the organs of interest were dissected. The radioactivity was measured in weighted tissue samples using a γ-counter. Data are given in %iD/g and are means ± SD.
For data set [5], the system named is AR42J tumor-bearing nude mice. Put plainly: Biodistribution in AR42J tumor-bearing nude mice. Conditions: 60 min p.i.
Experimental: as §3

T3 sequence (P35346 whole entry): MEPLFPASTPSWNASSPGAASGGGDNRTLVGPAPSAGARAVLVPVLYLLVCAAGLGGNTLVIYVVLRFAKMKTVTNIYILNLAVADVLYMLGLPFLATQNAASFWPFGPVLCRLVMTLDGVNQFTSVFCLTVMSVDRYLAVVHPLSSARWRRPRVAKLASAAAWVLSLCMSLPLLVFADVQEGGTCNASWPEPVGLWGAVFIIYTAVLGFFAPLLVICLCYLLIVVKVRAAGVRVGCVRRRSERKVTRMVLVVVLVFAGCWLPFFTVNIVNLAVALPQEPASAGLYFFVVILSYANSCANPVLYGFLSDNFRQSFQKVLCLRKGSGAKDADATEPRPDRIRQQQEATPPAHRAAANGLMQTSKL
T2 sequence (P32745 whole entry): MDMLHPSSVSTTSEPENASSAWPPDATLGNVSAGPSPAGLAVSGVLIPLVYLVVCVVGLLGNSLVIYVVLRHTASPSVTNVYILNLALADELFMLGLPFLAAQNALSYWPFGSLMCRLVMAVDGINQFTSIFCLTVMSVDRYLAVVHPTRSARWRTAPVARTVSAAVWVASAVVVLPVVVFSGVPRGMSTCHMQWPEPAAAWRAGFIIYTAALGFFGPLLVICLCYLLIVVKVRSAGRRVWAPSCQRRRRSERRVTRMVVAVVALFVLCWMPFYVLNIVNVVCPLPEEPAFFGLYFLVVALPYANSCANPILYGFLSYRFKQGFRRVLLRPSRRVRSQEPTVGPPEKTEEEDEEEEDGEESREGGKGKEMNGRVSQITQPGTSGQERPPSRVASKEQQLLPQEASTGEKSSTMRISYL
T1 sequence (P30872 whole entry): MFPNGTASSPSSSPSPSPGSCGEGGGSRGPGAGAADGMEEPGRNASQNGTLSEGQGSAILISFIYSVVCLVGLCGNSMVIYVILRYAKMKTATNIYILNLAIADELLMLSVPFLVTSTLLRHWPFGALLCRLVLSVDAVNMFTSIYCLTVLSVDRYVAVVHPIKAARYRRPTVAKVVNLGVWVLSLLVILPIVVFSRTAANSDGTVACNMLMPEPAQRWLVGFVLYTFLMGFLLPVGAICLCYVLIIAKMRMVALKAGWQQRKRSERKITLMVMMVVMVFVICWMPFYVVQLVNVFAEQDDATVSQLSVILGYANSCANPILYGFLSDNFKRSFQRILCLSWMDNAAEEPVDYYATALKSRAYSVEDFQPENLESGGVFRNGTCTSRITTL

As to `C[C@@H](O)[C@H](NC(=O)[C@@H]1CSSC[C@H](NC(=O)[C@@H](Cc2ccccc2)NC(=O)CN2CCN(CC(=O)O)CCN(CC(=O)O)CCN(CC(=O)O)CC2)C(=O)N[C@@H](Cc2ccc(O)cc2)C(=O)N[C@H](Cc2c[nH]c3ccccc23)C(=O)N[C@@H](CCCCN)C(=O)N[C@@H]([C@@H](C)O)C(=O)N1)C(=O)O` [^natGa-DOTATATE, metal not drawn, reference compound], the IC50 at hsst1 is above 1000 nM; on hsst3, above 1000 nM; in the data set with sst2, […]; on hsst5 [2], 200 to 500 nM; at hsst5 [3] it was above 1000 nM. Also, the logP in data set [1] was -3.69.

For `C[C@@H](O)[C@H](NC(=O)[C@@H]1CSSC[C@H](NC(=O)[C@@H](Cc2ccccc2)NC(=O)CN2CCN(CC(=O)O)CCN(CC(=O)O)CCN(CC(=O)O)CC2)C(=O)N[C@@H](Cc2ccc(O)c(I)c2)C(=O)N[C@H](Cc2c[nH]c3ccccc23)C(=O)N[C@@H](CCCCN)C(=O)N[C@@H]([C@@H](C)O)C(=O)N1)C(=O)O` [[^68Ga]HA-DOTATATE, [^68Ga]DOTA-3-iodo-Tyr^3-octreotate, metal not drawn], the tissue uptake at 1 h in data set [4] (AR42J tumor, intravenous, Biodistribution AR42J tumor, Competition, coinjection of 20 μg/mouse unlabeled TOC, n = 3) was found to be 5.6 ± 0.7 %ID/g; in data set [4] (AR42J tumor, iv, 25 pmol/mouse, Biodistribution AR42J tumor, Control, tracer only, n = 5), 33.6 ± 10.9 %ID/g; in data set [4] (adrenals, intravenous, Biodistribution Adrenals, Competition, coinjection of 20 μg/mouse unlabeled TOC, n = 3), 1 ± 0.3 %ID/g; in data set [4] (adrenals, iv, 25 pmol/mouse, Biodistribution Adrenals, Control, tracer only, n = 5) it was 10.8 ± 3.2 %ID/g; in data set [4] (blood, intravenous, Biodistribution Blood, Competition, coinjection of 20 μg/mouse unlabeled TOC, n = 3), 2.5 ± 0.6 %ID/g; in data set [4] (blood, iv, 25 pmol/mouse, Biodistribution Blood, Control, tracer only, n = 5), 0.7 ± 0.3 %ID/g. The tissue uptake at 1 h in data set [4] (heart, intravenous, Biodistribution Heart, Competition, coinjection of 20 μg/mouse unlabeled TOC, n = 3) was determined as 1 ± 0.2 %ID/g; in data set [4] (heart, iv, 25 pmol/mouse, Biodistribution Heart, Control, tracer only, n = 5), 0.5 ± 0.2 %ID/g; in data set [4] (intestine, intravenous, Biodistribution Intestine, Competition, coinjection of 20 μg/mouse unlabeled TOC, n = 3) it was 0.8 ± 0.04 %ID/g; in data set [4] (intestine, iv, 25 pmol/mouse, Biodistribution Intestine, Control, tracer only, n = 5), 4 ± 0.7 %ID/g; in data set [4] (kidney, intravenous, Biodistribution Kidney, Competition, coinjection of 20 μg/mouse unlabeled TOC, n = 3), 17.1 ± 8.7 %ID/g; in data set [4] (kidney, iv, 25 pmol/mouse, Biodistribution Kidney, Control, tracer only, n = 5), 5.3 ± 1 %ID/g. In addition, the tissue uptake at 1 h was 1 ± 0.3 %ID/g in data set [4] (liver, intravenous, Biodistribution Liver, Competition, coinjection of 20 μg/mouse unlabeled TOC, n = 3); 1 ± 0.2 %ID/g in data set [4] (liver, iv, 25 pmol/mouse, Biodistribution Liver, Control, tracer only, n = 5); 2.5 ± 0.4 %ID/g in data set [4] (lung, intravenous, Biodistribution Lung, Competition, coinjection of 20 μg/mouse unlabeled TOC, n = 3); 13.2 ± 1 %ID/g in data set [4] (lung, iv, 25 pmol/mouse, Biodistribution Lung, Control, tracer only, n = 5); 0.6 ± 0.4 %ID/g in data set [4] (muscle, intravenous, Biodistribution Muscle, Competition, coinjection of 20 μg/mouse unlabeled TOC, n = 3); 0.2 ± 0.1 %ID/g in data set [4] (muscle, iv, 25 pmol/mouse, Biodistribution Muscle, Control, tracer only, n = 5). Moreover, the tissue uptake at 1 h is 1.5 ± 0.5 %ID/g in data set [4] (pancreas, intravenous, Biodistribution Pancreas, Competition, coinjection of 20 μg/mouse unlabeled TOC, n = 3); 36.6 ± 4.3 %ID/g in data set [4] (pancreas, iv, 25 pmol/mouse, Biodistribution Pancreas, Control, tracer only, n = 5); 0.7 ± 0.2 %ID/g in data set [4] (spleen, intravenous, Biodistribution Spleen, Competition, coinjection of 20 μg/mouse unlabeled TOC, n = 3); 1.9 ± 0.8 %ID/g in data set [4] (spleen, iv, 25 pmol/mouse, Biodistribution Spleen, Control, tracer only, n = 5); 1.9 ± 0.8 %ID/g in data set [4] (stomach, intravenous, Biodistribution Stomach, Competition, coinjection of 20 μg/mouse unlabeled TOC, n = 3); 21.7 ± 4.5 %ID/g in data set [4] (stomach, iv, 25 pmol/mouse, Biodistribution Stomach, Control, tracer only, n = 5).

As for `C[C@@H](O)[C@H](NC(=O)[C@@H]1CSSC[C@H](NC(=O)[C@@H](Cc2ccccc2)NC(=O)CN2CCN(CC(=O)O)CCN(CC(=O)O)CCN(CC(=O)O)CC2)C(=O)N[C@@H](Cc2ccc(O)c(I)c2)C(=O)N[C@H](Cc2c[nH]c3ccccc23)C(=O)N[C@@H](CCCCN)C(=O)N[C@@H]([C@@H](C)O)C(=O)N1)C(=O)O` [[^68Ga]HA-DOTATATE] [[^68Ga]DOTA-3-iodo-Tyr^3-octreotate, metal not drawn], in data set [5], the “Uptake in sst-expressing tissues (stomach, adrenals, pancreas, AR42J tumor), factor of increase compared to [^68Ga]DOTATATE” value is recorded as 1.4 to 2.

With `C[C@@H](O)[C@H](NC(=O)[C@@H]1CSSC[C@H](NC(=O)[C@@H](Cc2ccccc2)NC(=O)CN2CCN(CC(=O)O)CCN(CC(=O)O)CCN(CC(=O)O)CC2)C(=O)N[C@@H](Cc2ccc(O)c(I)c2)C(=O)N[C@H](Cc2c[nH]c3ccccc23)C(=O)N[C@@H](CCCCN)C(=O)N[C@@H]([C@@H](C)O)C(=O)N1)C(=O)O` [^natGa-HA-DOTATATE, metal not drawn], the IC50 on hsst1 was above 1000 nM; at hsst3, above 1000 nM; on hsst5 [3], 102 ± 65 nM.
